These results are taken from US9000025B2, “Autotaxin inhibitors and uses thereof” (Amira Pharmaceuticals, Inc., priority 2010, dated 2015).

Usually IC50 stands for the concentration that inhibits the measured activity by half.

A value given as a limit tells only on which side of the number the result lay.

The assay has as its target T1, autotaxin (ATX) (Homo sapiens, UniProt Q13822).
T1 construct: conditioned medium from the human melanoma cell line, MDA-MB-4355, which endogenously expresses autotaxin; host or cells: MDA-MB-435S human melanoma cells; serum-free conditioned medium, concentrated 20-fold
The experiment in a line: Native Autotaxin Choline Release Assay. The assay is classed as biochemical. The note with it: autotaxin in conditioned medium from human melanoma cell line; choline released from LPC; read-out: MDA-MB-435S Assay IC50. Here is the method:
ATX activity is determined by measuring the amount of choline realeased from the substrate, lyosphophatidylcholine (LPC). […] After reaching confluency, the cells are washed twice with phosphate-buffered saline (PBS) then cultured for 48 hours in phenol-red free, serum-free DMEM containing sodium pyruvate. […] 100 μl of a color mix which contains 4.5 mM 4-aminoantipyrine, 2.7 mM N-ethyl-N-(2-hydroxy-3-sulfopropyl)-m-toluidine, 21 units/ml horseradish peroxidase and 3 units/ml choline oxidase in 50 mM Tris, pH 8, 4.5 mM MgCl2 is added and the incubation continued at 37° C. for 10 minutes before reading the absorbance at 555 nm. The concentration of released choline in the sample is determined from a choline standard curve and is equal to the concentration of LPA produced.
As for `O=C(O)c1cccc(Sc2c(C(F)(F)F)n(Cc3ccccc3)c3cc(Cl)ccc23)c1` [Compound 3-13, 3-(1-Benzyl-6-chloro-2-trifluoromethyl-1H-indol-3-ylsulfanyl)-benzoic acid], the IC50 was more than 1000 nM. For the molecule `Cc1c(Sc2cccc(C(=O)O)c2)c2ccc(Cl)c(F)c2n1-c1cnn(-c2ccccc2)c1` [Compound 3-23, 3-[6-Chloro-7-fluoro-2-methyl-1-(1-phenyl-1H-pyrazol-4-yl)-1H-indol-3-ylsulfanyl]-benzoic acid], the half-maximal inhibitory concentration (IC50) is less than 300 nM. For `CCn1cc(-n2c(C)c(Sc3cccc(C(=O)O)c3F)c3ccc(Cl)cc32)cn1` [Compound 1-67, 3-[6-Chloro-2-methyl-1-(1-ethyl-1H-pyrazol-4-yl)-1H-indol-3-ylsulfanyl]-2-fluoro-benzoic acid] the value was less than 300 nM; for `Cc1c(Sc2cccc(CC(=O)O)c2)c2ccccc2n1Cc1ccccc1` [Compound 1-9, [3-(1-Benzyl-2-methyl-1H-indol-3-ylsulfanyl)-phenyl]-acetic acid], more than 1000 nM. Consider `Cc1c(Sc2cccc(C(=O)O)c2)c2ccc(Cl)c(F)c2n1-c1cnn(-c2cccc(Cl)c2)c1` [Compound 3-33, 3-{6-Chloro-1-[1-(3-chloro-phenyl)-1H-pyrazol-4-yl]-7-fluoro-2-methyl-1H-indol-3-ylsulfanyl}-benzoic acid], for which the IC50 was less than 300 nM. Take `CCn1cc(-n2c(C)c(Sc3cccc(C(=O)O)c3)c3ccc(Cl)c(F)c32)cn1` [Compound 3-16, 3-[6-Chloro-1-(1-ethyl-1H-pyrazol-4-yl)-7-fluoro-2-methyl-1H-indol-3-ylsulfanyl]-benzoic acid]: the IC50 is less than 300 nM. Under `Cc1c(Sc2cccc(C(=O)O)c2)c2ccc(Cl)cc2n1-c1ccccn1` [Compound 1-31, 3-(6-Chloro-2-methyl-1-pyridin-2-yl-1H-indol-3-ylsulfanyl)-benzoic acid] stands 300 to 1000 nM. For `Cc1[nH]c2cc(Cl)ccc2c1Sc1ccccc1CC(=O)O` [Compound 3-1, [2-(6-Chloro-2-methyl-1H-indol-3-ylsulfanyl)-phenyl]-acetic acid] the value was more than 1000 nM; for `COC(=O)c1cccc(Oc2c(C)n(Cc3ccccc3)c3cc(Cl)ccc23)c1` [Compound 2-3, 3-(1-Benzyl-6-chloro-2-methyl-1H-indol-3-yloxy)-benzoic acid methyl ester], more than 1000 nM.

For `Cc1c(Sc2cccc(C(=O)O)c2)c2ccc(Cl)c(F)c2n1-c1cnn(C2CC2)c1` [Compound 3-47, 3-[6-Chloro-1-(1-cyclopropyl-1H-pyrazol-4-yl)-7-fluoro-2-methyl-1H-indol-3-ylsulfanyl]-benzoic acid], the IC50 was less than 300 nM.

On to `Cc1c(Sc2cccc(CC(=O)O)c2)c2ccc(Cl)cc2n1C` [Compound 1-5, [3-(6-Chloro-1,2-dimethyl-1H-indol-3-ylsulfanyl)-phenyl]-acetic acid], for which the IC50 is more than 1000 nM.

Turning to `CCCn1cc(-n2c(C)c(Sc3ccc(C)c(C(=O)O)c3)c3ccc(Cl)c(F)c32)cn1` [Compound 4-13, 5-[6-Chloro-1-(1-propyl-1H-pyrazol-4-yl)-7-fluoro-2-methyl-1H-indol-3-ylsulfanyl]-2-methyl-benzoic acid], the IC50 is less than 300 nM. As for `Cc1c(Sc2cccc(C(C)C(=O)O)c2)c2ccc(Cl)cc2n1-c1cccnc1` (centres unmarked) [Compound 3-20, 2-[3-(6-Chloro-2-methyl-1-pyridin-3-yl-1H-indol-3-ylsulfanyl)-phenyl]-propionic acid], the IC50 was less than 300 nM.

On to `Cc1c(Oc2cccc(CO)c2)c2ccc(Cl)cc2n1Cc1ccccc1` [Compound 2-4, [3-(1-Benzyl-6-chloro-2-methyl-1H-indol-3-yloxy)-phenyl]-methanol], for which the IC50 was more than 1000 nM. In the case of `Cc1c(Sc2cccc(C(=O)O)c2)c2ccc(Cl)cc2n1Cc1ccccc1` [Compound 1-15, 3-(1-Benzyl-6-chloro-2-methyl-1H-indol-3-ylsulfanyl)-benzoic acid], the IC50 is 300 to 1000 nM. For `Cc1c(Sc2cccc(C(=O)O)c2)c2ccc(Cl)cc2n1Cc1ccccn1` [Compound 1-24, 3-(6-Chloro-2-methyl-1-pyridin-2-ylmethyl-1H-indol-3-ylsulfanyl)-benzoic acid] the value was 300 to 1000 nM; for `CCn1cc(-n2c(C)c(Sc3cc(F)cc(C(=O)O)c3)c3ccc(Cl)cc32)cn1` [Compound 1-129, 3-[6-Chloro-1-(1-ethyl-1H-pyrazol-4-yl)-2-methyl-1H-indol-3-ylsulfanyl]-5-fluoro-benzoic acid], less than 300 nM. For `Cc1c(Sc2cccc(C(=O)O)c2)c2ccc(Cl)cc2n1-c1cnn(-c2ccc(F)cc2)c1` [Compound 1-71, 3-{6-Chloro-1-[1-(4-fluoro-phenyl)-1H-pyrazol-4-yl]-2-methyl-1H-indol-3-ylsulfanyl}-benzoic acid] the value was less than 300 nM; for `Cc1c(Sc2cccc(C(=O)O)c2)c2ccc(Cl)cc2n1-c1cnn(-c2ccccc2)c1` [Compound 1-58, 3-[6-Chloro-2-methyl-1-(1-phenyl-1H-pyrazol-4-yl)-1H-indol-3-ylsulfanyl]-benzoic acid], less than 300 nM; for `Cc1c(Sc2cccc(-c3nn[nH]n3)c2)c2ccc(Cl)cc2n1Cc1ccccc1` [Compound 2-9, 1-Benzyl-6-chloro-2-methyl-3-[3-(2H-tetrazol-5-yl)-phenylsulfanyl]-1H-indole], more than 1000 nM. Under `Cc1cncc(-n2c(C)c(Sc3cccc(C(=O)O)c3C)c3ccc(Cl)cc32)c1` [Compound 1-65, 3-[6-Chloro-2-methyl-1-(5-methyl-pyridin-3-yl)-1H-indol-3-ylsulfanyl]-2-methyl-benzoic acid] stands less than 300 nM; under `COc1c(Sc2c(C)n(-c3cnn(C)c3)c3cc(Cl)ccc23)cccc1C(=O)O` [Compound 1-61, 3-[6-Chloro-2-methyl-1-(1-methyl-1H-pyrazol-4-yl)-1H-indol-3-ylsulfanyl]-2-methoxy-benzoic acid], less than 300 nM; under `CCCn1cc(-n2c(C)c(Sc3cccc(C(=O)O)c3F)c3ccc(Cl)c(F)c32)cn1` [Compound 4-4, 3-[6-Chloro-7-fluoro-2-methyl-1-(1-propyl-1H-pyrazol-4-yl)-1H-indol-3-ylsulfanyl]-2-fluoro-benzoic acid], less than 300 nM. In the case of `COc1ccc(-n2c(C)c(Sc3cccc(C(=O)O)c3)c3ccc(Cl)cc32)cn1` [Compound 1-33, 3-[6-Chloro-1-(6-methoxy-pyridin-3-yl)-2-methyl-1H-indol-3-ylsulfanyl]-benzoic acid], the concentration for half-maximal inhibition (IC50) was less than 300 nM. For `Cc1c(Sc2cccc(C(=O)O)c2)c2ccc(Cl)cc2n1-c1cccc(-c2ccccc2)c1` [Compound 1-28, 3-(1-Biphenyl-3-yl-6-chloro-2-methyl-1H-indol-3-ylsulfanyl)-benzoic acid] the value was 300 to 1000 nM; for `O=C(O)c1cccc(Sc2cn(-c3cccnc3)c3cc(Cl)ccc23)c1` [Compound 3-19, 3-(6-Chloro-1-pyridin-3-yl-1H-indol-3-ylsulfanyl)-benzoic acid], 300 to 1000 nM; for `CCn1cc(-n2c(C)c(Sc3cccc(C(=O)O)c3)c3ccc(Cl)c(C)c32)cn1` [Compound 3-21, 3-[6-Chloro-1-(1-ethyl-1H-pyrazol-4-yl)-2,7-dimethyl-1H-indol-3-ylsulfanyl]-benzoic acid], less than 300 nM.

In the case of `CCCn1cc(-n2c(C)c(Sc3cccc(CC(=O)O)c3)c3ccc(Cl)c(F)c32)cn1` [Compound 3-37, {3-[6-chloro-7-fluoro-2-methyl-1-(1-propyl-1H-pyrazol-4-yl)-1H-indol-3-ylsulfanyl]-phenyl}-acetic acid], the IC50 was less than 300 nM. For `CCn1cc(-n2c(C)c(Sc3cccc(C(=O)O)c3)c3ccc(Cl)cc32)cn1` [Compound 1-43, 3-[6-Chloro-1-(1-ethyl-1H-pyrazol-4-yl)-2-methyl-1H-indol-3-ylsulfanyl]-benzoic acid] the value was less than 300 nM. Under `CCn1cc(-n2c(C)c(Sc3cccc(C(=O)O)c3F)c3ccc(Cl)c(F)c32)cn1` [Compound 4-3, 3-[6-Chloro-1-(1-ethyl-1H-pyrazol-4-yl)-7-fluoro-2-methyl-1H-indol-3-ylsulfanyl]-2-fluoro-benzoic acid] stands less than 300 nM; under `CCCn1cc(-n2c(C)c(Sc3cccc(CC(=O)NS(C)(=O)=O)c3)c3ccc(Cl)cc32)cn1` [Compound 3-53, N-(2-{3-[6-Chloro-2-methyl-1-(1-propyl-1H-pyrazol-4-yl)-1H-indol-3-ylsulfanyl]-phenyl}-acetyl)-methanesulfonamide], less than 300 nM. For `Cc1cncc(-n2c(C)c(Sc3cccc(C(=O)O)c3)c3ccc(Cl)c(F)c32)c1` [Compound 3-22, 3-[6-Chloro-7-fluoro-2-methyl-1-(5-methyl-pyridin-3-yl)-1H-indol-3-ylsulfanyl]-benzoic acid] the value was less than 300 nM; for `Cc1cncc(-n2c(C)c(Sc3cccc(C(=O)O)c3)c3ccc(Cl)cc32)c1` [Compound 1-56, 3-[6-Chloro-2-methyl-1-(5-methyl-pyridin-3-yl)-1H-indol-3-ylsulfanyl]-benzoic acid], less than 300 nM. As to `CCn1cc(-n2c(C)c(Sc3cccc(CC(=O)O)c3F)c3ccc(Cl)c(F)c32)cn1` [Compound 4-15, {3-[6-Chloro-1-(1-ethyl-1H-pyrazol-4-yl)-7-fluoro-2-methyl-1H-indol-3-ylsulfanyl]-2-fluoro-phenyl}-acetic acid], the IC50 was less than 300 nM.

For the molecule `Cc1ccc(C(=O)O)cc1Sc1c(C)n(-c2cnn(C)c2)c2cc(Cl)ccc12` [Compound 1-50, 3-[6-Chloro-2-methyl-1-(1-methyl-1H-pyrazol-4-yl)-1H-indol-3-ylsulfanyl]-4-methyl-benzoic acid], the IC50 is more than 1000 nM.
